The target in assay [1] is T1, 380 human recombinant protein kinases (Homo sapiens, UniProt P54760).
T1 construct: purchased Eurofins (Celle Lévescault)
T1 sequence (P54760 16-987): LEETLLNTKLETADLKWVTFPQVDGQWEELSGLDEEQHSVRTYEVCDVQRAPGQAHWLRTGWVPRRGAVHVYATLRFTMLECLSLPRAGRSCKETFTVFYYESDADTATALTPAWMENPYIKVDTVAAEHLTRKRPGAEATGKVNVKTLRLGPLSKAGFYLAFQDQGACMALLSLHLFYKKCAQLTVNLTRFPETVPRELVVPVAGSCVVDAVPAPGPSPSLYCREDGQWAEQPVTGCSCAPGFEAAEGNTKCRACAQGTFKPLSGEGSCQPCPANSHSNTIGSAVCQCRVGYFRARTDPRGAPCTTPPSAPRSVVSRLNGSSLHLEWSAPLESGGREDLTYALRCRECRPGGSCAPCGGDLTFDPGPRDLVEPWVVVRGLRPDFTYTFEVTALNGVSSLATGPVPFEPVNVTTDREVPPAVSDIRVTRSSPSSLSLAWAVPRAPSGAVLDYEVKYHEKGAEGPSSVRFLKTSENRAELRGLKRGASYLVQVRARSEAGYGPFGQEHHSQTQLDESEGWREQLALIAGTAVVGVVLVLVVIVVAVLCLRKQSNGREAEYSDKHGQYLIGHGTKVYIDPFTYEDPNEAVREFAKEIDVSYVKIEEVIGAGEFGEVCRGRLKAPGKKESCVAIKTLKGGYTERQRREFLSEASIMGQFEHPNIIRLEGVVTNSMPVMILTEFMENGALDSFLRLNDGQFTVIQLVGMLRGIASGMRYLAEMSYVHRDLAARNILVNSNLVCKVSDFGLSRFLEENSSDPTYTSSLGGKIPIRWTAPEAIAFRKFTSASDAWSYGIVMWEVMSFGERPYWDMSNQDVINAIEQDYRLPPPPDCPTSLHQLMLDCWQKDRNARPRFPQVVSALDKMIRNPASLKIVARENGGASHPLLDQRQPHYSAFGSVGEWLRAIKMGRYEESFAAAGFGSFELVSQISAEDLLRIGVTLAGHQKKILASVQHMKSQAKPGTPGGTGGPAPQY
Briefly: Eurofins kinase selectivity profile against 380 other human recombinant kinases (Table S2). It is filed as biochemical. To be noted: EphB4(h), read-out: Inhibition rate. Put shortly: (§1)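 Profiling against 380 human recombinant kinases carried out by Eurofins at various compound concentrations.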

Assay [2] concerns the target T2, 380 human recombinant protein kinases (Homo sapiens, UniProt Q15139).
T2 construct: purchased Eurofins (Celle Lévescault)
T2 sequence (Q15139 1-912): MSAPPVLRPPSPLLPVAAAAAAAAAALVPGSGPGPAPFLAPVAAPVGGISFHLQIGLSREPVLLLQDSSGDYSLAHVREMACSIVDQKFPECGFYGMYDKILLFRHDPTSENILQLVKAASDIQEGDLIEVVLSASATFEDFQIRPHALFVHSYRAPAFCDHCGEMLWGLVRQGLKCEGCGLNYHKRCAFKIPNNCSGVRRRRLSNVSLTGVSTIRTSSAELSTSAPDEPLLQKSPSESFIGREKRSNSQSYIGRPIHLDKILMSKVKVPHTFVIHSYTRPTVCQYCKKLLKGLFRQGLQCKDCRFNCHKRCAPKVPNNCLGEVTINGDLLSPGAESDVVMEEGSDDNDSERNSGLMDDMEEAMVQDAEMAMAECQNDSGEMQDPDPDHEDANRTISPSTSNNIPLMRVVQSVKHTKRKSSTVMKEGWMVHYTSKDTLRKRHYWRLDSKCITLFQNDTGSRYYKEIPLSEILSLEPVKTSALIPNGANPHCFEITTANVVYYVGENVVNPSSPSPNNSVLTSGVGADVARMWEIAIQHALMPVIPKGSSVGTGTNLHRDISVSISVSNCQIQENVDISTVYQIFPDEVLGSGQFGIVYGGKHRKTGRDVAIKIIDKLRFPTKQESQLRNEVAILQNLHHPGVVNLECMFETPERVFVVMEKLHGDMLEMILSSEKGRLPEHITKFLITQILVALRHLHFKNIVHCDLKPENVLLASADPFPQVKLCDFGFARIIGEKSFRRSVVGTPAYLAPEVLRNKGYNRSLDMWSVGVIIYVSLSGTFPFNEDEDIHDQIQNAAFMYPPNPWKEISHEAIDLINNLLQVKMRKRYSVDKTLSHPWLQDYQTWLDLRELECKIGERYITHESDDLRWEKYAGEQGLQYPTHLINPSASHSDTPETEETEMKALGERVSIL
The description is as above. It is filed as biochemical. To be noted: PKCμ(h), read-out: Inhibition rate. Put shortly: as §1

In the case of `C=CC(=O)Nc1cc(-c2cc(-c3cc4c([nH]3)CCNC4=O)ccn2)ccc1OC(F)(F)F` [compound 11], the inhibition (usually the relative decrease from the control value, in per cent) at 0.01 µM in assay [1] (10 nM) was -4%; in assay [2] (10 nM), -6%. Besides, the inhibition at 0.1 µM in assay [1] (100 nM) is -15%; in assay [2] (100 nM), 13%. The figures for the inhibition at 1 µM in assay [1] (1000 nM) and in assay [2] (1000 nM) were -4% and 45%, respectively.

The values are drawn from article PMC11233931, “Remodeling tumor‐associated macrophage for anti‐cancer effects by rational design of irreversible inhibition of mitogen‐activated protein kinase‐activated protein kinase 2” (MedComm, 2024).
